Results: US20200277373A1, “ANTI-TREM2 ANTIBODIES AND METHODS OF USE THEREOF” (Denali Therapeutics Inc., priority 2017, published 2020)

Key:
Type in all cases: cell-based
R47H TREM2 mutant = molecular target: T1, R47H TREM2 mutant (Homo sapiens, UniProt Q9NZC2, R47H); experiment: Liposome stimulation pSyk AlphaLISA, HEK293 overexpressing TREM2-R47H and DAP12; details: liposomes 30% lipid/70% PC (KLA 10%/90%), fold change over HBSS
T1 construct: expressed in transfected cells
Description: (§1) Lipids were purchased from Avanti Polar Lipids (Alabaster, Ala.) or Echelon Biosciences (Salt Lake City, Utah). Each screened lipid was resuspended in chloroform and added at 30 mole percent composition to 70 mole percent phosphatidylcholine (PC; 1,2-dioleoyl-sn-glycero-3-phosphocholine, Avanti Polar Lipids). Kdo2-Lipid A was added at a 10 mole percent composition with 90 mole percent PC. Lipid mixes were dried under nitrogen gas and resuspended in HBSS at a concentration of 4 mg/mL. Mixes were vortexed or briefly sonicated until resuspended, then bath sonicated for 1-5 minutes. Liposomes were used for 1-2 weeks. 3 independent batches of liposomes were used in experiments.
(§2) HEK293 cell lines overexpressing TREM2 and DAP12, mutant TREM2-R47H and DAP12, or DAP12 alone were plated in 96-well PDL-coated plates at a density of 40,000 cells per well and cultured for 36-48 hours until 90-100% confluent.
(§3) Cell culture medium was removed and cells were washed once with 200ul HBSS. Liposomes were diluted in HBSS in concentrations ranging from 0.03125 mg/mL to 2 mg/mL, then 50 μl was added to wells in 2-3 technical replicates per plate. Each plate contained HBSS negative control wells, 100% PC liposome control, 5 μg/mL agonist anti-TREM2 positive control (Abnova; Taiwan; # MAB2056), and 5 μg/mL mouse IgG3 isotype control (R&D Systems; Minneapolis, Minn.; # MAB007). Stimuli were incubated with cells for 5 minutes at 37° C., 5% CO2, liposomes were removed, and plates were frozen at −80° C.
(§4) Cells were lysed for 30 minutes to 1 hour on ice in 50 ul/well Cell Lysis Buffer (Cell Signaling Technology; Danvers, Mass.; #9803) with 1 mM PMSF. AlphaLISA SureFire Ultra p-Syk Tyr525/526 assay kit (PerkinElmer, ALSU-PSYK-A10OK) was used to measure pSyk levels in lysate as per manufacturer protocol. 10 μl lysate was added to 384-well OptiPlates (PerkinElmer; #6007290) and an EnVision Multilabel Plate Reader (PerkinElmer) was used to measure AlphaLISA fluorescence.
(§5) PSyk AlphaLISA fluorescence was converted to a log 2 scale. Fluorescence values from liposomes and controls were each subtracted from average fluorescence values from HBSS stimulated wells on the same plate (log 2(liposome)−log 2(HBSSave)=log 2(signal)). The result was converted back to a standard scale to measure fold change (2^log 2(signal)=fold change). Technical replicate fold changes values were averaged to obtain the fold change over background listed (pSyk FOB). Graphs represent values from independent experiments or individual human donors. Results from the screen on the HEK293 overexpressing cell lines are shown in Table 9 below and in FIG. 8A-8B. HEK293 results showing specificity for TREM2 over DAP12 expressed alone can be used to extrapolate which lipid species are likely acting as TREM2 ligands on human macrophages.

TREM2 = molecular target: T2, TREM2 (Homo sapiens, UniProt Q9NZC2); experiment: Liposome stimulation pSyk AlphaLISA, HEK293 overexpressing TREM2 and DAP12; details: liposomes 30% lipid/70% PC (KLA 10%/90%), fold change over HBSS
T2 construct: expressed in transfected cells
Description: as §1, §2, §3, §4, §5

DAP12 alone = molecular target: T3, DAP12 alone (Homo sapiens, UniProt O43914); experiment: Liposome stimulation pSyk AlphaLISA, HEK293 expressing DAP12 alone; details: liposomes 30% lipid/70% PC (KLA 10%/90%), fold change over HBSS
T3 construct: expressed in transfected cells
Description: as §1, §2, §3, §4, §5

[1] = tested on: primary human macrophages; experiment: Liposome stimulation pSyk AlphaLISA, primary human macrophages; details: liposomes 30% lipid/70% PC (KLA 10%/90%)
Description: as §1
10 mL human blood was obtained from Blood Centers of the Pacific. Monocytes were extracted using RosetteSep Human Monocyte Enrichment Cocktail ([…] Technologies Inc.; Vancouver, BC; #15068) as per manufacturer protocols. Density gradient was performed with Ficoll-Paque Premium (GE Healthcare Life Sciences; Pittsburgh, Pa.; #17-5442-02). Isolated monocytes were resuspended at ˜1-1.3 million cells/mL and cultured for 5-6 days in RPMI, 10% Hyclone Fetal Bovine Serum, and penicillin/streptomycin supplemented with 50 ng/mL human M-CSF (Gibco, # PHC9501) in T175 tissue culture treated flasks. M-CSF was replenished every 2-3 days. Cells were washed once with PBS, 15 mL fresh medium was added, and cells were harvested by scraping. Cells were cultured overnight at a density of 100,000 cells per well on tissue culture treated 96-well plates supplemented with 10-25 ng/mL M-CSF.
as §3, §4, §5

T1 sequence (Q9NZC2 19-230 R47H): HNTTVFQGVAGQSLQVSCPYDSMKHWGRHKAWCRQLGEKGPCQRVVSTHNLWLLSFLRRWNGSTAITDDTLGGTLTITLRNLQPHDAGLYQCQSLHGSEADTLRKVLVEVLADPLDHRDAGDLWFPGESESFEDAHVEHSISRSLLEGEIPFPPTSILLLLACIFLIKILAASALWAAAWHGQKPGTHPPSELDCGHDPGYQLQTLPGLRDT
T1 sequence (O43914 22-113 partner): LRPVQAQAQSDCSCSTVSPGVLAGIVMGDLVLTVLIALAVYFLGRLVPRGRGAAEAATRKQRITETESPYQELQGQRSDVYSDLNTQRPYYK
T3 sequence (O43914 22-113): as the sequence (O43914 22-113 partner) above
T2 sequence (Q9NZC2 19-230): as the sequence (Q9NZC2 19-230 R47H) above, with H29R counted along it
T2 sequence (O43914 22-113 partner): as the sequence (O43914 22-113 partner) above

Compound	R47H TREM2 mutant (pSyk FOB) (R47H TREM2 mutant)	Human TREM2 (pSyk FOB) (TREM2)	DAP12 alone (pSyk FOB) (DAP12 alone)	pSyk FOB [1]
CCCCCCCCCCCCCCCC(=O)OC[C@H](COP(=O)([O-])OCC[N+](C)(C)C)OC(=O)CCCC=O [1-palmitoyl-2-(5′-oxo-valeroyl)-sn-glycero-3-phosphocholine]	1.57 FOB	0.86 FOB	1.34 FOB	
CCCCC/C=C\C/C=C\C/C=C\C/C=C\CCCC(=O)OC(CO)CO [2-Arachidonoylglycerol (2-AG), 2-Arachidonoylglycerol]	0.84 FOB	0.68 FOB	1.11 FOB	1.23 FOB
CC(C)CCC[C@@H](C)[C@H]1CC[C@H]2[C@@H]3C(=O)C=C4C[C@@H](O)CC[C@]4(C)[C@H]3CC[C@]12C [7-ketocholesterol (7-KC), 7-ketocholesterol]	3.42 FOB	1.10 FOB	1.36 FOB	1.18 FOB
CC(C)[C@@H](O)CC[C@@H](C)[C@H]1CC[C@H]2[C@@H]3CC=C4C[C@@H](O)CC[C@]4(C)[C@H]3CC[C@]12C [24(S)hydroxycholesterol (24OHC), 24(S)hydroxycholesterol]	8.44 FOB	4.50 FOB	1.57 FOB	1.56 FOB
C[C@H](CCCC(C)(C)O)[C@H]1CC[C@H]2[C@@H]3CC=C4C[C@@H](O)CC[C@]4(C)[C@H]3CC[C@]12C [25(S)hydroxycholesterol (25OHC), 25(S)hydroxycholesterol]	6.27 FOB	2.61 FOB	1.20 FOB	1.14 FOB
C[C@@H](CO)CCC[C@@H](C)[C@H]1CC[C@H]2[C@@H]3CC=C4C[C@@H](O)CC[C@]4(C)[C@H]3CC[C@]12C [27-hydroxycholesterol (27OHC), 27-hydroxycholesterol]	9.25 FOB	5.26 FOB	1.36 FOB	1.72 FOB
CCCCCCCC/C=C\CCCCCCCC(=O)OC[C@H](COP(=O)([O-])OCC[N+](C)(C)C)OC(=O)CCCCCCC/C=C\CCCCCCCC [100% Phosphatidylcholine (PC), 1,2-dioleoyl-sn-glycero-3-phosphocholine, reference compound]	2.27 FOB	2.01 FOB	0.86 FOB	1.18 FOB
CC(C)CCC[C@@H](C)[C@H]1CC[C@H]2[C@@H]3CC=C4C[C@@H](OP(=O)(O)O)CC[C@]4(C)[C@H]3CC[C@]12C [Cholesterol phosphate (CP), Cholesterol phosphate]	3.09 FOB	2.43 FOB	1.27 FOB	1.18 FOB
CCCCCCCC(=O)OC[C@H](COP(=O)(O)OP(=O)(O)O)OC(=O)CCCCCCC [Diacylglycerol pyrophosphate (DGPP), Diacylglycerol pyrophosphate]	3.70 FOB	3.42 FOB	1.16 FOB	1.61 FOB
CC(C)CCC[C@@H](C)[C@H]1CC[C@H]2[C@@H]3CC=C4C[C@@H](O)CC[C@]4(C)[C@H]3CC[C@]12C [Free cholesterol (FC), Free cholesterol]	2.24 FOB	1.04 FOB	1.14 FOB	1.44 FOB
CCCCCCCCCCCCC/C=C/[C@@H](O)[C@@H](N)CO[C@@H]1O[C@H](CO)[C@H](O)[C@H](O)[C@H]1O [Galactosylsphingosine (GalSo), Galactosylsphingosine]	1.07 FOB	1.09 FOB	0.71 FOB	
CCCCCCCCCCCCC/C=C/[C@@H](O)[C@@H](N)CO[C@@H]1O[C@H](CO)[C@@H](O)[C@H](O)[C@H]1O [Glucosyl sphingosine (GlcSo), Glucosyl sphingosine]	1.27 FOB	1.34 FOB	1.31 FOB	2.05 FOB
CCCCCCCCCCCCCC(=O)O[C@H](CCCCCCCCCCC)CC(=O)O[C@@H]1[C@@H](NC(=O)C[C@@H](CCCCCCCCCCC)OC(=O)CCCCCCCCCCC)[C@H](OC[C@H]2O[C@H](OP(=O)(O)O)[C@H](NC(=O)C[C@H](O)CCCCCCCCCCC)[C@@H](OC(=O)C[C@H](O)CCCCCCCCCCC)[C@@H]2O)O[C@H](CO[C@]2(C(=O)O)C[C@@H](O[C@]3(C(=O)O)C[C@@H](O)[C@@H](O)[C@@H]([C@H](O)CO)O3)[C@@H](O)[C@@H]([C@H](O)CO)O2)[C@H]1OP(=O)(O)O [Kdo2-Lipid A (KLA), Kdo2-Lipid A]	6.65 FOB	5.15 FOB	1.25 FOB	2.73 FOB
CCCCCCCCCCCCC/C=C/[C@@H](O)[C@@H](N)COP(=O)([O-])OCC[N+](C)(C)C [Lysosphingomyelin (LSM), Lysosphingomyelin]	0.85 FOB	0.67 FOB	1.03 FOB	1.26 FOB
CCCCCCCCCCCCCCC[C@@H](O)[C@@H](N)CO [Sphinganine]	1.39 FOB	0.76 FOB	1.26 FOB	
CCCCCCCCCCCCCCCCCCCCCCCCCC(=O)N[C@@H](CO[C@H]1O[C@H](CO)[C@H](O)[C@H](O)[C@H]1O)[C@H](O)[C@H](O)CCCCCCCCCCCCCC [α-galactosylceramide (KRN7000), α-galactosylceramide]	0.97 FOB	0.79 FOB	0.85 FOB	
Acyl Carnitine [Acyl Carnitine (AC)]	1.83 FOB	1.17 FOB	1.55 FOB	
Diacylglycerol 34:1 [Diacylglycerol 34:1 (DG34:1)]	0.68 FOB	1.20 FOB	0.68 FOB	
Diacylglycerol 38:4 [Diacylglycerol 38:4 (DG 38:4)]	0.73 FOB	1.05 FOB	0.64 FOB	
Dihyrdoceramide [Dihyrdoceramide (DhCer)]	1.47 FOB	1.22 FOB	0.84 FOB	
Glucosylceramide [Glucosylceramide (GlcCer)]				1.58 FOB
Lysophosphatidylcholine [Lysophosphatidylcholine (LPC)]	1.47 FOB	1.26 FOB	1.14 FOB	
N-Acyl-phosphatidylethanolamine [N-Acyl-phosphatidylethanolamine (NAPE)]	0.94 FOB	0.67 FOB	0.78 FOB	
alkylacylglycerophosphocholine [alkylacylglycerophosphocholine (PAF)]	1.41 FOB	1.58 FOB	0.69 FOB	
lysoalkylacylglycerophosphocholine	1.46 FOB	1.81 FOB	0.67 FOB	
